# Data taken from ChEMBL document CHEMBL3431459, “Roche carnitine palmitoyltransferase modulator screening data (supplementary data associated with the publication CHEMBL2216752)”.
# Assays:
# [1] = target: T1, Carnitine O-palmitoyltransferase 1, liver isoform (Rattus norvegicus, UniProt P32198); assay: (§1) SUPPLEMENTARY: Inhibition of Carnitine palmitoyltransferase 1, liver isoform
# T1 sequence (P32198 whole entry): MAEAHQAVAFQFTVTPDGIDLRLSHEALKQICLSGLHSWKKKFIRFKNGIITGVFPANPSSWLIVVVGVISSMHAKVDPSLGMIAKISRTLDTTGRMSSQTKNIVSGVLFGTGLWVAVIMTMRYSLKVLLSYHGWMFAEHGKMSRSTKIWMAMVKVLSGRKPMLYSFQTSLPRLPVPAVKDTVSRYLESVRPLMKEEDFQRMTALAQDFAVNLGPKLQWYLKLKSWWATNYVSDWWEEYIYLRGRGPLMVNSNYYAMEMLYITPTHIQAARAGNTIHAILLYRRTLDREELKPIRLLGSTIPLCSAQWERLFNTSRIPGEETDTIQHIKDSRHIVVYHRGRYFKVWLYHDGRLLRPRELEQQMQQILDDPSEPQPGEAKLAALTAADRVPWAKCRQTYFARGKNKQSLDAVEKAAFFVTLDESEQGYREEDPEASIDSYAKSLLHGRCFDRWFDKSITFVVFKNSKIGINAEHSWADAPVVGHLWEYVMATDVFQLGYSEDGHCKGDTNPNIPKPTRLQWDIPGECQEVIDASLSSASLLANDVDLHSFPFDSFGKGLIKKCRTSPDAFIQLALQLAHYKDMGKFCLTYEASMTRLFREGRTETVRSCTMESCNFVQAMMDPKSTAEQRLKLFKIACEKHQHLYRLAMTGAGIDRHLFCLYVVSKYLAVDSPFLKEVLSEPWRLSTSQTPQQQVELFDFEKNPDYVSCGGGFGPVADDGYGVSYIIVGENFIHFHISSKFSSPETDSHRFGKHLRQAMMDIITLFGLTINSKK
# [2] = target: T2, Carnitine O-palmitoyltransferase 1, liver isoform (Homo sapiens, UniProt P50416); assay: as §1
# T2 sequence (P50416 whole entry): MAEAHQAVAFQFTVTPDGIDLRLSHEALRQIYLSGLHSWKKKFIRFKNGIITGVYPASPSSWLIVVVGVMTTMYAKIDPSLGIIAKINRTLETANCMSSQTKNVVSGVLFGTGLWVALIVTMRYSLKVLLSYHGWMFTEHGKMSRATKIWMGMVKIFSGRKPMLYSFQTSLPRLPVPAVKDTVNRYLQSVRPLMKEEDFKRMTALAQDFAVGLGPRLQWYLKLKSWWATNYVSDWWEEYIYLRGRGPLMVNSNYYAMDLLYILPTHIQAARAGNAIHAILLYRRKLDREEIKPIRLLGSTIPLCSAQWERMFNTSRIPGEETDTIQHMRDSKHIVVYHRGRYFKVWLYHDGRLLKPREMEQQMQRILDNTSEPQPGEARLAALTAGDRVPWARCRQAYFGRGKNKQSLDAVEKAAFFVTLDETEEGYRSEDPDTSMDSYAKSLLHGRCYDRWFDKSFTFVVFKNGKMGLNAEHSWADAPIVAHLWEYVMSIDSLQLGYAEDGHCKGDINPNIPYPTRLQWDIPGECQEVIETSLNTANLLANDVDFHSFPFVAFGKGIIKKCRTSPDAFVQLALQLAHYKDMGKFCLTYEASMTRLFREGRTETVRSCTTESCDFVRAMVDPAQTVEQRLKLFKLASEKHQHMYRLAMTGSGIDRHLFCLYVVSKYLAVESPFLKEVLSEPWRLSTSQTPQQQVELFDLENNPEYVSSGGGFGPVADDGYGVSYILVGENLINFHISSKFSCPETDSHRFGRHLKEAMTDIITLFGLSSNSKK
# [3] = SUPPLEMENTARY: Lipophilicity (log D) Determination by high-throughput shake-flask; assay type: physicochemical; conditions: octanol/water
# [4] = target: T3, Carnitine O-palmitoyltransferase 2, mitochondrial (Rattus norvegicus, UniProt P18886); assay: (§2) SUPPLEMENTARY: Inhibition of Carnitine palmitoyltransferase 2
# T3 sequence (P18886 whole entry): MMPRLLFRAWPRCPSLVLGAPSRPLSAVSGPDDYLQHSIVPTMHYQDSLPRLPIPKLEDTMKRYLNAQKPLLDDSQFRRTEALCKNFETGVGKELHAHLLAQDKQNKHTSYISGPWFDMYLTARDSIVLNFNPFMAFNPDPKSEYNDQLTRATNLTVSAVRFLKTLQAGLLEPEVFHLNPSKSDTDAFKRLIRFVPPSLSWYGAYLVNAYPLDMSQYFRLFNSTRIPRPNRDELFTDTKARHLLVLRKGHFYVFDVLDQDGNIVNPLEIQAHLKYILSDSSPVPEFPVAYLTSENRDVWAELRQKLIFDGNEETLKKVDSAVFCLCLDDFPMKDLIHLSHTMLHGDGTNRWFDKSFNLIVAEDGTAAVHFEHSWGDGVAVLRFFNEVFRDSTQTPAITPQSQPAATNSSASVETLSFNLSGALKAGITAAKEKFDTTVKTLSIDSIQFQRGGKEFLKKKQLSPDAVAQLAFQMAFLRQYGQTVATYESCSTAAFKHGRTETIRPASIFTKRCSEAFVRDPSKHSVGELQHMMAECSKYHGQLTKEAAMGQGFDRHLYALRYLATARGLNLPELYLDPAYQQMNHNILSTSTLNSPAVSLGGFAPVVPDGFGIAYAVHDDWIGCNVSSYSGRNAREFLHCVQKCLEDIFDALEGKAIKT
# [5] = target: T4, Carnitine O-palmitoyltransferase 2, mitochondrial (Homo sapiens, UniProt P23786); assay: as §2
# T4 sequence (P23786 whole entry): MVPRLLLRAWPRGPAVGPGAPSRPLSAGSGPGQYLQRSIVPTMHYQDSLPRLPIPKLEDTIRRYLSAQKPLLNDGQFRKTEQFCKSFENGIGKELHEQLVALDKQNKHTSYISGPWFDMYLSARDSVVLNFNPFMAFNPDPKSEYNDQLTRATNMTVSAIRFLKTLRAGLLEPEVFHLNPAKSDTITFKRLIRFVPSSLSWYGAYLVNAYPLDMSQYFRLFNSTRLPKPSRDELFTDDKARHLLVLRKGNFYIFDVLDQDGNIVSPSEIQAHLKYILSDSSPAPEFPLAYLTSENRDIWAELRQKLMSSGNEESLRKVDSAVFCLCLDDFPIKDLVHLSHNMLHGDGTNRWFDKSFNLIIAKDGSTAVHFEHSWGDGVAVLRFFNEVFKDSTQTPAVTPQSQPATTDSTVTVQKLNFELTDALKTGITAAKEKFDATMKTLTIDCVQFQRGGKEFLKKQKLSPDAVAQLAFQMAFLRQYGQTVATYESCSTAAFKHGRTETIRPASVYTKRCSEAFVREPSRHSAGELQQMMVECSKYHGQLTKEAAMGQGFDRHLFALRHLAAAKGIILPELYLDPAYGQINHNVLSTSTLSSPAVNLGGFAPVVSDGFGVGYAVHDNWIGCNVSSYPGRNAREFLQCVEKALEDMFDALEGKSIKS
# [6] = target: T5, Carnitine O-palmitoyltransferase 1, muscle isoform (Homo sapiens, UniProt Q92523); assay: SUPPLEMENTARY: Inhibition of Carnitine palmitoyltransferase 1, muscle isoform; design: species or system Muscle tissue
# T5 sequence (Q92523 whole entry): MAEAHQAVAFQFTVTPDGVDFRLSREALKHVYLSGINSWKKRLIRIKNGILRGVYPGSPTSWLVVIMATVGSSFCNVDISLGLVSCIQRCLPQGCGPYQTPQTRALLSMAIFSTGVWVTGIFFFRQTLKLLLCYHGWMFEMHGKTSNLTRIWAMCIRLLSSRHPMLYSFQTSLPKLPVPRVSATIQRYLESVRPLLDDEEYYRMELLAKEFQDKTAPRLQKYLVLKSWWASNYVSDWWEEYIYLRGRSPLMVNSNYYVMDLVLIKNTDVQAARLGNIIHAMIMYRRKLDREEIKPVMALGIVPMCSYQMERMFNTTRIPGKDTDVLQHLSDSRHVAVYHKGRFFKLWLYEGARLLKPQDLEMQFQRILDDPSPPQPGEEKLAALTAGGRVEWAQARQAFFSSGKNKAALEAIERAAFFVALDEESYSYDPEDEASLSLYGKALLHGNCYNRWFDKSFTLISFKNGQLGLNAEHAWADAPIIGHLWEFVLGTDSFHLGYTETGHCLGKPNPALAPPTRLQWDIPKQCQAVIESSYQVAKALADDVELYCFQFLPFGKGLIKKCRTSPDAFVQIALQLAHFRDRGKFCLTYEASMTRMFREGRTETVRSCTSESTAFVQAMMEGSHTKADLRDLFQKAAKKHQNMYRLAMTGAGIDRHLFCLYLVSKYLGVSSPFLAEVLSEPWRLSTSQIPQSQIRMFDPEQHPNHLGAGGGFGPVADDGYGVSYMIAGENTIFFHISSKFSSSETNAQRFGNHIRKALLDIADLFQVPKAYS
# [7] = SUPPLEMENTARY: PAMPA permeability assay; assay type: physicochemical; conditions: read-out: Permeability
# [8] = SUPPLEMENTARY: Lyophilisation Solubility Assay (LYSA); assay type: physicochemical; conditions: read-out: Kinetic_solubility
IC50 [1],IC50 [2],logD [3],IC50 [4],IC50 [5],IC50 [6],Papp [7],solubility kinetic [8],SMILES
38.3 nM,53.9 nM,2.55,> 100 µM,> 100 µM,3.17 µM,1.88 ×10⁻⁶ cm/s,3 µg/mL,COc1ccc(Cl)cc1S(=O)(=O)N1CCOc2c(C)cc(C(=O)Nc3nc(CC(=O)O)cs3)cc21
> 10000 nM,44400 nM,3.95,> 100 µM,> 100 µM,> 100 µM,2.27 ×10⁻⁶ cm/s,< 1 µg/mL,O=C(COc1ccccc1)N1CCC(n2c(COc3ccccc3)nc3cc(F)ccc32)CC1
76.8 nM,210 nM,2.45,1.31 µM,0.507 µM,> 100 µM,3.57 ×10⁻⁶ cm/s,37 µg/mL,O=C([C@H]1CCCCN1C(=O)COc1ccccc1)N1Cc2cc(F)c(OC3CCOCC3)cc2C1
38.6 nM,41.6 nM,0.05,> 100 µM,> 100 µM,1.43 µM,2.18 ×10⁻⁶ cm/s,31 µg/mL,COc1ccc(Cl)cc1S(=O)(=O)N1CCOc2ccc(C(=O)Nc3ncc(CC(=O)O)s3)cc21
388 nM,140 nM,1.07,> 100 µM,> 100 µM,> 100 µM,6.99 ×10⁻⁶ cm/s,68 µg/mL,O=C(COc1ccccc1)N1CCCC[C@@H]1c1noc(-c2cc([N+](=O)[O-])[nH]n2)n1
56.3 nM,60.1 nM,2.41,> 100 µM,> 100 µM,> 100 µM,2.25 ×10⁻⁶ cm/s,36 µg/mL,COc1ccc(Cl)cc1S(=O)(=O)c1c2cc(C(=O)Nc3ccc(C(=O)O)cc3)ccc2nn1C
7980 nM,260 nM,> 3,> 100 µM,> 100 µM,> 100 µM,1.5 ×10⁻⁶ cm/s,1 µg/mL,CC(=O)Nc1ccc(-c2noc([C@H]3CCCCN3C(=O)C#Cc3ccccc3)n2)cc1C(F)(F)F
26.4 nM,51.2 nM,1.89,4.34 µM,1.36 µM,1.25 µM,0.03 ×10⁻⁶ cm/s,40 µg/mL,Cc1cc(C)cc(S(=O)(=O)c2n[nH]c3ccc(C(=O)Nc4ccc(C(=O)O)cc4)cc23)c1
106 nM,26.1 nM,3.08,19.2 µM,19.1 µM,> 100 µM,2.8 ×10⁻⁶ cm/s,9.55 µg/mL,O=C(COc1ccccc1)N1CCCC[C@@H]1c1nc(-c2ccc3[nH]cnc3c2)no1
39.5 nM,54.2 nM,0.25,20.8 µM,5.44 µM,15.5 µM,0.86 ×10⁻⁶ cm/s,> 626 µg/mL,O=C(O)c1ccc(NC(=O)c2ccc3c(c2)N(S(=O)(=O)c2cccc(Cl)c2)CCS3(=O)=O)cc1
56.7 nM,57.5 nM,0.52,6.51 µM,1.53 µM,4.56 µM,1.66 ×10⁻⁶ cm/s,7 µg/mL,COc1ccc(Cl)cc1S(=O)(=O)N1CCOc2c(F)cc(C(=O)Nc3ccc(C(=O)O)c(F)c3)cc21
483 nM,187 nM,-0.23,> 100 µM,> 100 µM,3.28 µM,1.39 ×10⁻⁶ cm/s,100 µg/mL,COc1ccc(Cl)cc1S(=O)(=O)N1COCc2ccc(C(=O)Nc3ccc(CC(=O)O)cc3)cc21
458 nM,59.9 nM,2.66,69.7 µM,29.7 µM,83.3 µM,7.36 ×10⁻⁶ cm/s,70 µg/mL,O=C(COc1ccccc1)N1CCCC[C@@H]1c1noc(-c2cccc(-n3cc[nH]c3=O)c2)n1
153 nM,129 nM,2.35,> 100 µM,21.4 µM,> 100 µM,5.43 ×10⁻⁶ cm/s,31.5 µg/mL,O=C(COc1ccccc1)N1CCCC[C@@H]1c1noc(-c2ccc3cccnc3n2)n1
